From patent US20240116985A1, “STAPLED PEPTIDES AND METHODS THEREOF” (priority 2020, published 2024)
Where two headings read alike, the source gives them in different places.

Key:
[1] = target: T1, beta-catenin/TCF4 engagement (Homo sapiens, UniProt P35222); experiment: Nano-BRET target engagement assay (B-cat-Halo & TCF4-Luc in HEK293 cells); assay type: cell-based; conditions: read-out: NanoBRET Abs IC50
T1 construct: expressed in transfected cells; host or cells: HEK293
T1 sequence (P35222 1-781): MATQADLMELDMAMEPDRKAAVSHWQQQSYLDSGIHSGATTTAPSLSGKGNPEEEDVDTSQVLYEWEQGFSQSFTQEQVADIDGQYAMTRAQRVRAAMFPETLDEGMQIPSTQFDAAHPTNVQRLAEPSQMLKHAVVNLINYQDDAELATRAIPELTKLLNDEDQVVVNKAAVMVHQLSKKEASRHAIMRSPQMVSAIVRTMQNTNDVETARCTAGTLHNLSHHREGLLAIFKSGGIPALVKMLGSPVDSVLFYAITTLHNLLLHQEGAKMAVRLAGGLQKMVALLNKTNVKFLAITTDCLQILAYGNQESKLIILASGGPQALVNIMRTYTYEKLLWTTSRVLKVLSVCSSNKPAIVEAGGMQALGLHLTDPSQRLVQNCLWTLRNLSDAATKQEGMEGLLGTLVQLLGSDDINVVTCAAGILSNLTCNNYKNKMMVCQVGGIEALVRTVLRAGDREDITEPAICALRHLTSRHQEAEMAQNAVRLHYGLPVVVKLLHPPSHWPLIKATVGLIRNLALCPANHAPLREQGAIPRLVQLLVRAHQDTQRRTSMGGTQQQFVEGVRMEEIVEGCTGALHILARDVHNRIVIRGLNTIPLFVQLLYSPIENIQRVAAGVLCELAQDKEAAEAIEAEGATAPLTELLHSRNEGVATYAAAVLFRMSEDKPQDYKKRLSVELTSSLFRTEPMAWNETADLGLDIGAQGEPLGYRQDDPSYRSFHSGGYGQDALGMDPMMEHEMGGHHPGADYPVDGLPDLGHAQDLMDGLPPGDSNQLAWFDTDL

[2] = target: T2, full-length beta-Catenin (Uniprot ID P35222) (Homo sapiens, UniProt P35222); experiment: Fluorescence polarization IC50 (beta-catenin / 5FAM-TCF4 10-53 competition); assay type: binding; conditions: fluorescence polarization; read-out: beta-Catenin FP IC50
T2 construct: 10 nM full-length beta-Catenin (Uniprot ID P35222)
T2 sequence (P35222 1-781): T1 sequence (P35222 1-781)

SMILES: CC(=O)N1CCC[C@]12CCCCCCC1(CCCCCCCCOC(=O)N3CC[C@@](C(=O)N[C@@H](CC4CCCC4)C(=O)N[C@@H](Cc4csc5ccccc45)C(=O)N[C@@H](CCC(N)=O)C(N)=O)(C3)NC(=O)[C@H](CC(C)C)NC(=O)[C@H](Cc3ccccc3)NC(=O)[C@H](C)NC(=O)[C@H](C)NC(=O)[C@H](CN(CC(=O)O)CC(F)(F)F)NC(=O)[C@H](CC(=O)O)NC1=O)NC(=O)[C@H](CC(C)(C)C)NC(=O)[C@H](CC(=O)O)NC2=O (stereo partly drawn) [I-1713, Ac-PL3-Asp-Npg-B5-Asp-TfeGA-Ala-Ala-Phe-Leu-PyrS2-CypA-BztA-Gln-NH2]
- IC50 ([1]; absolute IC50): > 20000 nM
- IC50 [2]: 498 nM

SMILES: CC(=O)N1CCC[C@]12CC=CCCCC1(CCCC=CCCCOC(=O)N3CC[C@@](C(=O)N[C@@H](Cc4ccsc4)C(=O)N[C@@H](Cc4csc5ccccc45)C(=O)N[C@@H](CCC(N)=O)C(N)=O)(C3)NC(=O)[C@H](CC(C)C)NC(=O)[C@H](Cc3ccccc3)NC(=O)[C@H](C)NC(=O)[C@H](C)NC(=O)[C@H](CCN(CC(=O)O)C(=O)Cc3ccc(C(F)(F)F)cc3)NC(=O)[C@H](CC(=O)O)NC1=O)NC(=O)[C@H](CC(C)(C)C)NC(=O)[C@H](CC(=O)O)NC2=O (stereo partly drawn) [I-2246, Ac-PL3-Asp-Npg-B5-Asp-[4CF3PhAc]GAbu-Ala-Ala-Phe-Leu-PyrS2-3Thi-BztA-Gln-NH2]
- IC50 ([1]; absolute IC50): 12900 nM
- IC50 [2]: 27 nM

SMILES: CC(=O)N1CCC[C@]12CCCCCCC1(CCCCCCCOC(=O)N3CC[C@@](C(=O)N[C@@H](Cc4ccsc4)C(=O)N[C@@H](Cc4csc5ccccc45)C(=O)N[C@@H](CCC(N)=O)C(N)=O)(C3)NC(=O)[C@H](CC(N)=O)NC(=O)[C@H](Cc3ccccc3)NC(=O)[C@H](C)NC(=O)[C@H](C)NC(=O)[C@H](CC(=O)O)NC(=O)[C@H](CC(=O)O)NC1=O)NC(=O)[C@H](CC(C)(C)C)NC(=O)[C@H](CC(=O)O)NC2=O (stereo partly drawn) [I-1821, Ac-PL3-Asp-Npg-B5-Asp-Asp-Ala-Ala-Phe-Asn-PyrS1-3Thi-BztA-Gln-NH2]
- IC50 ([1]; absolute IC50): > 20000 nM
- IC50 [2]: 67 nM

SMILES: CC(=O)N1CCC[C@]12CC=CCCCC1(CCCC=CCCCOC(=O)N3CC[C@@](C(=O)N[C@@H](Cc4ccccc4C(F)(F)F)C(=O)N[C@@H](Cc4csc5ccccc45)C(=O)N[C@@H](CCC(=O)N4CCOCC4)C(N)=O)(C3)NC(=O)[C@H](CCC(=O)N3CCOCC3)NC(=O)[C@H](Cc3ccccc3)NC(=O)[C@H](C)NC(=O)[C@H](C)NC(=O)[C@H](Cc3cccc(C(=O)O)c3)NC(=O)[C@H](CC(=O)O)NC1=O)NC(=O)[C@H](CC(C)(C)C)NC(=O)[C@H](CC(=O)O)NC2=O (stereo partly drawn) [I-2547, Ac-PL3-Asp-Npg-B5-Asp-3COOHF-Ala-Ala-Phe-MorphGln-PyrS2-2F3MeF-BztA-MorphGln-NH2]
- IC50 ([1]; absolute IC50): 3500 nM
- IC50 [2]: 13 nM

SMILES: CC(=O)N1CCC[C@]12CC=CCCCC1(CCCC=CCCCOC(=O)N3CC[C@@](C(=O)N[C@@H](Cc4ccsc4)C(=O)N[C@@H](Cc4csc5ccccc45)C(=O)N[C@@H](CC(N)=O)C(=O)N[C@@H](C)C(=O)N[C@@H](CC(C)C)C(=O)N[C@@H](C)C(=O)N[C@@H](CC(C)C)C(=O)N[C@@H](C)C(=O)N[C@@H](CC(C)C)C(=O)N[C@@H](C)C(N)=O)(C3)NC(=O)[C@H](CC(C)C)NC(=O)[C@H](Cc3ccccc3)NC(=O)[C@H](C)NC(=O)[C@H](C)NC(=O)[C@H](Cc3cccc(C(=O)O)c3)NC(=O)[C@H](CC(=O)O)NC1=O)NC(=O)[C@H](CC(C)(C)C)NC(=O)[C@H](CC(=O)O)NC2=O (stereo partly drawn) [I-2284]
- IC50 ([1]; absolute IC50): 12900 nM
- IC50 [2]: 2680 nM

SMILES: CC(=O)N1CCC[C@]12CC=CCCCC1(CCCC=CCCCOC(=O)N3CC[C@@](C(=O)N[C@@H](Cc4ccsc4)C(=O)N[C@@H](Cc4csc5ccccc45)C(=O)N[C@@H](CCC(N)=O)C(N)=O)(C3)NC(=O)[C@H](CC(C)C)NC(=O)[C@H](Cc3ccccc3)NC(=O)[C@H](C)NC(=O)[C@H](C)NC(=O)[C@H](Cn3cc(-c4ccccc4C(=O)O)nn3)NC(=O)[C@H](CC(=O)O)NC1=O)NC(=O)[C@H](CC(C)(C)C)NC(=O)[C@H](CC(=O)O)NC2=O (stereo partly drawn) [I-2086, Ac-PL3-Asp-Npg-B5-Asp-[2COOHPh]TriAzDap-Ala-Ala-Phe-Leu-PyrS2-3Thi-BztA-Gln-NH2]
- IC50 [1]: 16400 nM
- IC50 [2]: 12 nM
